Results from the supplement of paper PMC4862054.

What was measured:
Conditions in all cases: 72 h
CAL-120 [1] = system: CAL-120
Method in brief: (§1)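 Two sequential readouts followed a 72 h incubation of breast cancer cell lines with compound at 5 concentrations in 10-fold steps over a compound-specific 10,000-fold range: CellTox Green fluorescence (485/520 nm) for cell death, then CellTiter-Glo luminescence, after 10 min at room temperature, for viability. Each plate was normalised to 0.1 % DMSO and a positive kill control. Dose-response curves were fitted for EC50, censored at the top concentration.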

HCC1599 [2] = system: HCC1599
Method in brief: as §1

CAL-148 [3] = system: CAL-148
Method in brief: (§2)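 The reported EC50 was fitted from percent-inhibition dose-response curves and censored at the highest concentration. Breast cancer cell lines (20 µl suspension) were added to 384-well plates containing compound in 5 µl medium and incubated 72 h, and viability was read with 2.5 µl CellTiter-Blue over 2 h at 37 °C at 560/590 nm. Each plate was normalised to vehicle and a positive kill control and checked by Z'-factor, and rows with zero drug sensitivity score were dropped.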

CAL-51 = system: CAL-51
Method in brief: as §2

CAL-85-1 [4] = system: CAL-85-1
Method in brief: as §2

DU-4475 [5] = system: DU-4475
Method in brief: as §2

HDQ-P1 [6] = system: HDQ-P1
Method in brief: as §2

MDA-MB-453 [7] = system: MDA-MB-453
Method in brief: as §2

BT-474 [8] = system: BT-474
Method in brief: as §2

BT-549 [9] = system: BT-549
Method in brief: as §2

CAL-120 [10] = system: CAL-120; remark: listed apart in the source
Method in brief: as §2

HCC1143 [11] = system: HCC1143
Method in brief: as §2

HCC1599 [12] = system: HCC1599; remark: listed apart in the source
Method in brief: as §2

HCC1937 [13] = system: HCC1937
Method in brief: as §2

Hs578T [14] = system: Hs578T
Method in brief: as §2

MDA-MB-231 [15] = system: MDA-MB-231
Method in brief: as §2

MDA-MB-436 [16] = system: MDA-MB-436
Method in brief: as §2

MDA-MB-468 [17] = system: MDA-MB-468
Method in brief: as §2

MFM-223 [18] = system: MFM-223
Method in brief: as §2

SK-BR-3 = system: SK-BR-3
Method in brief: as §2

CAL-85-1 [19] = system: CAL-85-1; remark: listed apart in the source
Method in brief: as §1

Hs578T [20] = system: Hs578T; remark: listed apart in the source
Method in brief: as §1

MCF-10A = system: MCF-10A
Method in brief: as §1

MDA-MB-453 [21] = system: MDA-MB-453; remark: listed apart in the source
Method in brief: as §1

MDA-MB-468 [22] = system: MDA-MB-468; remark: listed apart in the source
Method in brief: as §1

BT-474 [23] = system: BT-474; remark: listed apart in the source
Method in brief: as §1

BT-549 [24] = system: BT-549; remark: listed apart in the source
Method in brief: as §1

CAL-148 [25] = system: CAL-148; remark: listed apart in the source
Method in brief: as §1

DU-4475 [26] = system: DU-4475; remark: listed apart in the source
Method in brief: as §1

HCC1143 [27] = system: HCC1143; remark: listed apart in the source
Method in brief: as §1

HCC1599 [28] = system: HCC1599; remark: listed apart in the source
Method in brief: as §1

HCC1937 [29] = system: HCC1937; remark: listed apart in the source
Method in brief: as §1

HDQ-P1 [30] = system: HDQ-P1; remark: listed apart in the source
Method in brief: as §1

MDA-MB-231 [31] = system: MDA-MB-231; remark: listed apart in the source
Method in brief: as §1

MDA-MB-436 [32] = system: MDA-MB-436; remark: listed apart in the source
Method in brief: as §1

MFM-223 [33] = system: MFM-223; remark: listed apart in the source
Method in brief: as §1

Compound	EC50, CellTox Green (CAL-120 [1]) [µM]	EC50, CellTiter-Glo (HCC1599 [2]) [µM]	EC50, CellTiter-Blue viability (CAL-148 [3]) [µM]	EC50, CellTiter-Blue viability (CAL-51) [µM]	EC50, CellTiter-Blue viability (CAL-85-1 [4]) [µM]	EC50, CellTiter-Blue viability (DU-4475 [5]) [µM]	EC50, CellTiter-Blue viability (HDQ-P1 [6]) [µM]	EC50, CellTiter-Blue viability (MDA-MB-453 [7]) [µM]	EC50, CellTiter-Blue viability (BT-474 [8]) [µM]	EC50, CellTiter-Blue viability (BT-549 [9]) [µM]	EC50, CellTiter-Blue viability (CAL-120 [10]) [µM]	EC50, CellTiter-Blue viability (HCC1143 [11]) [µM]	EC50, CellTiter-Blue viability (HCC1599 [12]) [µM]	EC50, CellTiter-Blue viability (HCC1937 [13]) [µM]	EC50, CellTiter-Blue viability (Hs578T [14]) [µM]	EC50, CellTiter-Blue viability (MDA-MB-231 [15]) [µM]	EC50, CellTiter-Blue viability (MDA-MB-436 [16]) [µM]	EC50, CellTiter-Blue viability (MDA-MB-468 [17]) [µM]	EC50, CellTiter-Blue viability (MFM-223 [18]) [µM]	EC50, CellTiter-Blue viability (SK-BR-3) [µM]	EC50, CellTox Green (CAL-85-1 [19]) [µM]	EC50, CellTox Green (Hs578T [20]) [µM]	EC50, CellTox Green (MCF-10A) [µM]	EC50, CellTox Green (MDA-MB-453 [21]) [µM]	EC50, CellTox Green (MDA-MB-468 [22]) [µM]	EC50, CellTox Green (BT-474 [23]) [µM]	EC50, CellTox Green (BT-549 [24]) [µM]	EC50, CellTox Green (CAL-148 [25]) [µM]	EC50, CellTox Green (DU-4475 [26]) [µM]	EC50, CellTox Green (HCC1143 [27]) [µM]	EC50, CellTox Green (HCC1599 [28]) [µM]	EC50, CellTox Green (HCC1937 [29]) [µM]	EC50, CellTox Green (HDQ-P1 [30]) [µM]	EC50, CellTox Green (MDA-MB-231 [31]) [µM]	EC50, CellTox Green (MDA-MB-436 [32]) [µM]	EC50, CellTox Green (MFM-223 [33]) [µM]
CC(C)(C)Cn1c(N)nc2ccc(-c3[nH]c(C(C)(C)C)nc3-c3ccc(F)cc3)nc21	> 10	–	–	–	–	–	–	–	–	–	–	–	–	–	–	–	–	–	–	–	–	–	–	–	–	–	–	–	–	–	–	–	–	–	–	–
CO[C@H](C(=O)[C@@H](O)[C@@H](C)O)[C@@H]1Cc2cc3cc(O[C@H]4C[C@@H](O[C@@H]5C[C@@H](O)[C@H](O)[C@@H](C)O5)[C@H](O)[C@@H](C)O4)c(C)c(O)c3c(O)c2C(=O)[C@H]1O[C@H]1C[C@@H](O[C@@H]2C[C@@H](O)[C@@H](O[C@@H]3C[C@](C)(O)[C@H](O)[C@@H](C)O3)[C@@H](C)O2)[C@H](O)[C@@H](C)O1 [Plicamycin]	–	4.45	0.0736	0.124	0.0837	0.0488	0.0845	0.082	0.123	0.0336	0.0471	0.0269	0.105	0.0372	0.0308	0.0416	0.0255	0.0281	0.168	0.0498	8.29	6.42	2.85	7.42	0.39	–	–	–	–	–	–	–	–	–	–	–
N[C@@H](Cc1ccc(N(CCCl)CCCl)cc1)C(=O)O [Melphalan]	1.79	0.467	–	–	–	–	–	–	–	–	–	–	–	0.0855	0.222	–	–	–	–	–	0.392	1.11	0.275	0.419	0.293	0.347	0.778	0.354	1.29	2.91	0.726	0.613	0.363	0.129	2.3	0.514
COc1cc(Nc2ncc(F)c(Nc3ccc4c(n3)N(COP(=O)(O)O)C(=O)C(C)(C)O4)n2)cc(OC)c1OC [Fostamatinib]	–	–	–	–	–	–	–	–	–	–	–	–	–	–	–	–	–	–	–	–	0.725	1.08	–	–	–	–	0.0016	–	–	–	–	–	–	0.267	–	–
CCCc1cc(C)[nH]c(=O)c1CNC(=O)c1cc(-c2ccnc(N3CCN(C)CC3)c2)cc2c1cnn2C(C)C [GSK343]	–	5.17	–	–	–	–	–	–	–	–	–	–	–	–	–	–	–	–	–	–	3.44	–	–	2.68	–	3.37	–	–	–	–	> 10	–	–	2.28	–	0.227
Cc1c(N)nc([C@H](CC(N)=O)NC[C@H](N)C(N)=O)nc1C(=O)N[C@H](C(=O)N[C@H](C)[C@@H](O)[C@H](C)C(=O)N[C@H](C(=O)NCCc1nc(-c2nc(C(=O)NCCC[S+](C)C)cs2)cs1)[C@@H](C)O)[C@@H](OC1OC(CO)C(O)C(O)C1OC1OC(CO)C(O)C(OC(N)=O)C1O)c1cnc[nH]1 (stereo partly drawn) [Bleomycin]	–	–	–	9.96	–	–	–	–	–	0.0164	0.582	0.201	–	0.767	0.0693	0.109	7.33	–	–	–	–	–	–	–	–	–	–	0.396	–	–	–	–	–	–	7.5	–
CC(C)C[C@H](NC(=O)[C@H](CCc1ccccc1)NC(=O)CN1CCOCC1)C(=O)N[C@@H](Cc1ccccc1)C(=O)N[C@@H](CC(C)C)C(=O)[C@@]1(C)CO1 [Carfilzomib]	0.0346	0.0961	0.0258	0.0202	0.0136	0.0123	0.0109	0.00222	0.0269	0.00278	0.00907	0.00847	0.0886	0.00221	0.00547	0.00644	0.0143	0.00566	0.00194	0.00545	0.009	0.0319	0.136	–	0.00078	0.0602	0.0114	0.0161	–	–	–	0.00649	0.0251	0.0102	0.00694	0.00842
